Consider eleven molecules from PubChem BioAssay (NCI).

SMILES strings stand for the structures.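 Following 48 hours of exposure in 96-well plates, responses at five concentrations were used to interpolate endpoints linearly. The concentration for full growth arrest is given as TGI.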 Some results are limits rather than exact numbers.

Test in all cases: inhibition of tumour cell growth, NCI panel, 48 h
The subject of assay [1] is SNB-19 CNS.
The test system of assay [2] is NCI-H226 lung.
Assay [3] relates to SF-295 CNS.
For assay [4], the system named is OVCAR-8 ovarian.
In assay [5] the test system is NCI-H23 lung.
The subject of assay [6] is CCRF-CEM leukemia.
In assay [7] the test system is HCT-116 colon.
In assay [8] the test system is MOLT-4 leukemia.
Assay [9] has as its system IGROV1 ovarian.
The subject of assay [10] is SF-539 CNS.
Assay [11] has as its system MALME-3M melanoma.
Assay [12] has as its system SK-MEL-28 melanoma.
The test system of assay [13] is NCI-H522 lung.
In assay [14] the test system is MCF7 breast.
Assay [15] relates to DU-145 prostate.

For `C/C(=N/O)c1sc(-c2nc(C)c(/C(C)=N\O)s2)nc1C`, the TGI in assay [1], in assay [2], in assay [3], in [4], in assay [5] and in [6] was greater than 100 µM throughout. The TGI in [7], in assay [8], in assay [9], in [10], in assay [11] and in assay [12] was greater than 100 µM in each case.
For the molecule `COc1ccc(/C=C/C(=O)c2sc(-c3cccnc3)nc2C)cc1`, the TGI in [2], in [3], in [4], in [5], in [13] and in assay [6] was greater than 100 µM throughout. For the same molecule, the TGI in assay [8] was 99.5 µM; in [9] it was greater than 100 µM; in assay [10], 65 µM; in [11] it was greater than 100 µM; in assay [12] it was greater than 100 µM.
Regarding `CCN(CC)Cc1cc(Nc2ccnc3ccc4nn(C)nc4c23)ccc1O`, the TGI in assay [1] was greater than 100 µM; in [2], 41.7 µM; in assay [3], 29.1 µM; in assay [4] it was 50.7 µM; in assay [5], 29.9 µM; in assay [13] it was 21.6 µM. Also, the TGI in assay [6] was greater than 100 µM; in assay [7], 21.5 µM; in [8] it was greater than 100 µM; in assay [9], 99 µM; in [10], 26.5 µM; in [11], 31.3 µM. The TGI in [12] was determined as 27.4 µM.
With `CN(C)C(=NC#N)N(Cc1ccccc1)Cc1ccccc1`, the TGI is greater than 100 µM in assay [1]; greater than 100 µM in assay [2]; greater than 100 µM in [3]; greater than 100 µM in assay [4]; greater than 100 µM in assay [5]; 81.5 µM in assay [13]. For the same molecule, the TGI in assay [6], in [7], in [9], in assay [10], in [11] and in [12] was greater than 100 µM throughout.
For `CC(C)OP(=O)(OC(C)C)C(=NCCN=C(NNc1ccccc1[N+](=O)[O-])P(=O)(OC(C)C)OC(C)C)NNc1ccccc1[N+](=O)[O-]`, the TGI was greater than 100 µM in assay [1]; 67.4 µM in [2]; greater than 100 µM in assay [4]; greater than 100 µM in assay [5]; greater than 100 µM in [13]; 70.9 µM in assay [6]. The TGI in assay [7] was greater than 100 µM; in assay [8] it was greater than 100 µM; in assay [9], 82.7 µM; in assay [10], greater than 100 µM; in assay [11], 54.5 µM; in assay [12] it was greater than 100 µM.
Consider `O=C(Cc1nc2ccc([N+](=O)[O-])cc2[nH]c1=O)C(=O)Nc1ccccc1[N+](=O)[O-]`, for which the TGI in assay [1], in [2], in assay [3], in assay [5], in assay [13] and in [6] was greater than 100 µM in each case. Moreover, the TGI in [7], in assay [8], in [9], in assay [10], in [11] and in [12] was greater than 100 µM in each case.
For `CC(C)C(Sc1nc(-c2ccccc2)c(-c2ccccc2)[nH]1)c1n[nH]c(=S)n1-c1ccccc1` (stereo not given), the TGI in [1] is 56.8 µM; in assay [2], greater than 100 µM; in assay [3], 57.3 µM; in assay [4], greater than 100 µM; in assay [5], 77.9 µM; in [13], 43.6 µM. The TGI in [6] is 64.5 µM; in [7] it was greater than 100 µM; in assay [8], 47.5 µM; in [9] it was 69.2 µM; in assay [10], 40.4 µM; in assay [11], 50.9 µM. The same molecule had a TGI in assay [12] of 70.2 µM.
Consider `NC(CCCCNCc1ccccc1)C(=O)O` (stereo not given), for which the TGI in assay [1], in [2], in assay [3], in [4], in [5] and in assay [13] was greater than 100 µM in each case. The TGI in assay [6], in [7], in [8], in [9], in assay [10] and in assay [11] was greater than 100 µM each time. In assay [12], the TGI is greater than 100 µM.
For `COc1ccccc1NC(=O)CC(=O)N1N=C(c2ccccc2)C(N=Nc2ccc(Cl)cc2)C1=O` (stereo not given), the TGI in assay [1] is greater than 100 µM; in [2], greater than 100 µM; in [3], 70.3 µM; in [4] it was greater than 100 µM; in assay [5], greater than 100 µM; in assay [13], greater than 100 µM. Moreover, the TGI in [7], in assay [8], in assay [9], in [10] and in assay [12] was greater than 100 µM each time.
As to `COc1cc(CNc2cnc3ccc(N)cc3n2)cc(OC)c1OC`, the TGI in [1], in assay [2], in assay [3], in assay [4], in [5] and in [13] was greater than 100 µM in each case. Further, the TGI in assay [6], in [7], in [8], in [9], in assay [10] and in assay [11] was greater than 100 µM in each case. In [12], this molecule returned a TGI greater than 100 µM.
With `COC(=O)Cn1c(=O)oc2nc(-c3ccccc3)cc(C(F)(F)F)c21`, the TGI in assay [1], in [2], in assay [3], in assay [4], in [5] and in assay [13] was greater than 100 µM in each case. Also, the TGI was greater than 100 µM in [7]; 71.3 µM in assay [8]; greater than 100 µM in [14]; greater than 100 µM in assay [9]; greater than 100 µM in assay [10]; greater than 100 µM in assay [12]. In [15], this molecule displayed a TGI greater than 100 µM.
